Results from PMC2922946 (Bioorganic & medicinal chemistry, 2010).
Each block holds one molecule with its values, some of them ahead of it. Where a SMILES comes first, the peptide text is derived from it. The star is where a group is joined. Boc = CC(C)(C)OC(=O)*

What was measured:
Hdm2–p53 complex = Hdm2–p53 complex (Homo sapiens, UniProt Q00987); assay: Competitive ELISA, Hdm2–p53 inhibition; type: biochemical; conditions: for % Inhibition at 560 μM: ELISA, Hdm2 (1.5 μM), peptide 560 μM
Hdmx–p53 complex = molecular target: T1, Hdmx–p53 complex (Homo sapiens, UniProt O15151); assay: Competitive ELISA, Hdmx–p53 inhibition; type: biochemical; conditions: for % inhibition at 320 μM / activity against the Hdmx–p53 complex (in words): ELISA; for % inhibition at 320 μM: Hdmx (200 nM), peptide 320 μM
T1 sequence (O15151 1-189): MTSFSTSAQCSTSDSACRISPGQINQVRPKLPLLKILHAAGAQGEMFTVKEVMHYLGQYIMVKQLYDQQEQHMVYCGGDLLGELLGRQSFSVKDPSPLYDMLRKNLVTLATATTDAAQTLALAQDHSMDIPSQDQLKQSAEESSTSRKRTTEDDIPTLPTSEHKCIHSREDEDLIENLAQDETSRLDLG

Sequence of Hdm2–p53 complex (Q00987 1-188, one chain of several): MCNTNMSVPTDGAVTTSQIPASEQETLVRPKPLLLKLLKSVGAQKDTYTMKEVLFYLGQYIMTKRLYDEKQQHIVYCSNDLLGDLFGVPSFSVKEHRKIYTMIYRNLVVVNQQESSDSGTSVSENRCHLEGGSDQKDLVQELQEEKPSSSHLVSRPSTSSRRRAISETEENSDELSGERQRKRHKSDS

inhibition at 320 µM (Hdmx–p53 complex; read-out: % inhibition at 320 μM): 12 ± 1%
Molecule: CC(C)C[C@@H]1NC(=O)[C@H](CC(=O)O)NC(=O)[C@H](C)NC(=O)[C@H](Cc2ccccc2)NC(=O)[C@H](Cc2c[nH]c3ccccc23)NC(=O)[C@H](CCCNC(=N)N)NC1=O [Compound 8, c-(ADLRWF)] (cyclo(ADLRWF))

activity against Hdm2–p53 complex (Hdm2–p53 complex; concentration not given): no activity
Molecule: CC(C)CNC(=O)[C@H](Cc1ccccc1)NC(=O)[C@H](Cc1c[nH]c2ccccc12)NC(=O)[C@H](CCCNC(=N)N)NC(=O)OCc1ccccc1 [Compound 12F]

% inhibition at 320 μM (Hdmx–p53 complex): No Inhibition
Molecule: Boc-DLRWF-NH2 [Compound 7a]

activity against the Hdmx–p53 complex (in words) (Hdmx–p53 complex): dramatic reduction of activity | % inhibition at 320 μM (Hdmx–p53 complex): 13 ± 1%
Molecule: Boc–DLRWF–N(CH2)5 [Compound 7b]

The next lines start with the molecule.

Molecule: CC[C@H](C)[C@@H]1NC(=O)[C@H](C)NC(=O)[C@H](C(C)C)NC(=O)[C@H](Cc2ccc(O)cc2)NC(=O)[C@H](Cc2ccc(O)cc2)NC(=O)[C@H](Cc2ccccc2)NC1=O [Compound 3, c-(AIFYYV)] (cyclo(AIFYYV))
level of activity lower than that of the decapeptide control (Hdm2–p53 complex; Hdm2–p53 ELISA, versus control ETFSDLWKLL): approximately 13 fold | antagonism of the Hdmx–p53 complex (Hdmx–p53 complex; wide range of concentrations (up to 1 mM)): did not antagonize

Molecule: CC(C)(C)OC(=O)N[C@@H](CCCNC(=N)N)C(=O)N[C@@H](Cc1c[nH]c2ccccc12)C(=O)N[C@@H](Cc1ccccc1)C(N)=O [Compound 5a, Boc–RWF–NH2] (Boc-Arg-Trp-Phe-NH2)
% inhibition at 320 μM (Hdmx–p53 complex): No Inhibition

Molecule: Boc–FYYV–N(CH2)5 [Compound 2a]
% Inhibition at 560 μM (Hdm2–p53 complex): No Inhibition | activity toward Hdm2–p53 complex (Hdm2–p53 complex; at concentrations of up to 560 μM): no activity

Molecule: Boc–IFYYV–N(CH2)5 [Compound 2b]
% Inhibition at 560 μM (Hdm2–p53 complex): 16 ± 1%

Molecule: Boc–WF–N(CH2)5 [Compound 4b]
activity against the Hdmx–p53 complex (in words) (Hdmx–p53 complex): measurable inhibition | % inhibition at 320 μM (Hdmx–p53 complex): 13 ± 1%
